Assay results taken from PubChem BioAssay (NCI).
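How tested: cells in 96-well plates exposed to compound for 48 hours at five concentrations. At the TGI there is no net growth.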

Key:
Assay in all cases: NCI tumour cell line growth inhibition, 48 h
OVCAR-4 ovarian = tested on: OVCAR-4 ovarian
BT-549 breast = tested on: BT-549 breast
T-47D breast = tested on: T-47D breast
HS 578T breast = tested on: HS 578T breast
DU-145 prostate = tested on: DU-145 prostate
SN12C renal = tested on: SN12C renal
MDA-MB-435 = tested on: MDA-MB-435
TK-10 renal = tested on: TK-10 renal
M14 melanoma = tested on: M14 melanoma
ACHN renal = tested on: ACHN renal
P388/ADR leukemia = tested on: P388/ADR leukemia
XF 498 CNS = tested on: XF 498 CNS
SN12K1 renal = tested on: SN12K1 renal
KM20L2 colon = tested on: KM20L2 colon
DMS 273 small cell lung = tested on: DMS 273 small cell lung
SNB-78 CNS = tested on: SNB-78 CNS
M19-MEL melanoma = tested on: M19-MEL melanoma
RPMI-8226 leukemia = tested on: RPMI-8226 leukemia
P388 leukemia = tested on: P388 leukemia
A549 NSCLC = tested on: A549 NSCLC

Structure (SMILES)	TGI (OVCAR-4 ovarian)	TGI (BT-549 breast)	TGI (T-47D breast)	TGI (HS 578T breast)	TGI (DU-145 prostate)	TGI (SN12C renal)	TGI (MDA-MB-435)	TGI (TK-10 renal)	TGI (M14 melanoma)	TGI (ACHN renal)	TGI (P388/ADR leukemia)	TGI (XF 498 CNS)	TGI (SN12K1 renal)	TGI (KM20L2 colon)	TGI (DMS 273 small cell lung)	TGI (SNB-78 CNS)	TGI (M19-MEL melanoma)	TGI (RPMI-8226 leukemia)	TGI (P388 leukemia)	TGI (A549 NSCLC)
CC(=O)O[C@H]1[C@@H](OC(C)=O)C(C)(C)/C=C/[C@H](C)C(=O)[C@@]2(OC(C)=O)C[C@@](C)(OC(C)=O)[C@H](OC(C)=O)[C@@H]2[C@H]2OC(=O)CC[C@@]2(OC(=O)c2ccccc2)[C@@H]1OCC(C)C	> 100 µM	> 100 µM	> 100 µM	65.4 µM	> 100 µM	> 100 µM	> 100 µM	> 100 µM	> 100 µM	> 100 µM										
NC1(C(=O)O)CCCC1	> 625 µM					> 625 µM					> 625 µM	6.25 µM	> 625 µM	> 625 µM	> 625 µM	> 444 µM	> 625 µM	> 625 µM	> 625 µM	> 625 µM
